Values after ≈ are worked out from the molar mass of the structure shown. Values joined by “and” are separate entries in the source; they are usually repeats but may differ in a detail not shown here. Identical values can stand only once.
Assays:
[1] = tested on: MBP (MBP-PNGase, MBP-SpoIVB, MBP-MOC1); experiment: Fluorescence measurement with MBP-fusion control proteins; assay type: binding; conditions: rutin 55 μM, MBP-fusion proteins 18 μM, excitation 430 nm
Protocol: The relevant recombinant proteins were incubated with rutin in black 384-well plate at room temperature for 30 min before measurements. The concentrations of proteins were always kept at 18 μM and rutin was 55 μM. The total assay volume was filled to 100 μL using the protein buffer (pH 7.4). The fluorescence emission spectrum of every mixture were measured with the excitation at 430 nm and the emission at 460 nm at room temperature on a BioTek Synergy microplate reader with a sensitivity of 100 or 120 and measurements of per data with 100 times. […]
presence of three different MBP-fusion proteins. The MBP-fusion proteins (MBP-PNGase protein (gray dash-dot line), MBP-SpoIVB protein (gray dash line) and MBP-MOC1 protein […]
at 430 nm. Addition of rutin (55 μМ) to these proteins (MBP-PNGase in black solid line, MBP-SpoIVB in black dash line and MBP-MOC1 in black dot line) gave the signals almost identical to rutin itself (gray solid), which has a maximum fluorescence at 550 nm.
(1 picture or pasted object on this page, not shown here)

MBP-PDI-b′xa′ E359A = target: T1, MBP-PDI-b′xa′ E359A (Homo sapiens, UniProt P07237, E359A); experiment: Isothermal titration calorimetry (ITC); assay type: binding; conditions: 25 °C
T1 construct: MBP-PDI-b′xa′(235–479); His-tag; made in house; host or cells: E. coli BL21 (DE3)
T1 sequence (P07237 235-479 E359A): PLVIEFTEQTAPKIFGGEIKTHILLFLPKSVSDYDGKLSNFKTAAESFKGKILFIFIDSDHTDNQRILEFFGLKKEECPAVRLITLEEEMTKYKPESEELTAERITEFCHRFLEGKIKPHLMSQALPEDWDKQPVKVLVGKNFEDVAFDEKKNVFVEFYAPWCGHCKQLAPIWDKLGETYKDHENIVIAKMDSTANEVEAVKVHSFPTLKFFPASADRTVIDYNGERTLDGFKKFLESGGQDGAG
Protocol: (§1) Microcalorimetry titration of rutin to PDI recombinant and mutant proteins used a MicroCal ITC200 microcalorimeter (GE Healthcare). PDI recombinant proteins, which concentration ranges from 25 μM to 50 μM, were added into the cell (about 300 μL). Rutin, with concentration ranging from 500 μM to 1 mM, was injected from syringe to titrate the protein in cell (almost 40 μL). The experiment was performed at 25 °C with a equilibration time of 10 min, the reference power was set to 6.25 μcal s^−1. The process including 25 injections, each of 1, 2 or 2.5 μL rutin, in a duration of 3 s, and the interval time between two injections was 180 s. Data was analyzed with MicroCal Origin (MicroCal).
(§2) Next, we resorted to a more sensitive method, isothermal titration calorimetry (ITC), to measure the direct binding. Due to the weak interaction, this method requires large amounts of high-purity protein samples (about 240 μL at 20–50 μM) to be titrated by the highest concentration of rutin (its water solubility of about 200 μM), so that the release of heat as a result of complex formation reached plateau phase rapidly and was enough to be measured. A problem we encountered is that the starting phase of the S-shape curve of heat measurement cannot always be resolved using the typical titration program of ITC, thus affecting the accuracy of dissociation constant (Kd) measurement from the S-shape ITC curve. This was due to the use of equal volume of small molecule titrant (∼2.5 μL) used in the typical ITC titration. Therefore, we established an optimized ITC titration scheme by using variable drop sizes, which started with small drops (1 μL at first ten times of injection) and ended with large drops (2 μL). We thus obtained S-shape ITC curves with well-defined upper and lower platforms (Fig. 5 and S6 ^†), which allowed the accurate measurements of Kd values.

MBP-PDI-b′xa′ E359K = target: T2, MBP-PDI-b′xa′ E359K (Homo sapiens, UniProt P07237, E359K); experiment: Isothermal titration calorimetry (ITC); assay type: binding; conditions: 25 °C
T2 construct: MBP-PDI-b′xa′(235–479); His-tag; made in house; host or cells: E. coli BL21 (DE3)
T2 sequence (P07237 235-479 E359K): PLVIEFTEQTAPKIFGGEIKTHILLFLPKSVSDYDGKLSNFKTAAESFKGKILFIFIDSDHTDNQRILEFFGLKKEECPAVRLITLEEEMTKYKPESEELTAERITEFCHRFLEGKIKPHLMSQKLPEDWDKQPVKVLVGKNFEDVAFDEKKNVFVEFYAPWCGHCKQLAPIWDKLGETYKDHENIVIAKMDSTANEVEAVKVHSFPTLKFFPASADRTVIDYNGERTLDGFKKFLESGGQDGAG
Protocol: as §1, §2

MBP-PDI-b′xa′ H354A = target: T3, MBP-PDI-b′xa′ H354A (Homo sapiens, UniProt P07237, H354A); experiment: Isothermal titration calorimetry (ITC); assay type: binding
T3 construct: MBP-PDI-b′xa′(235–479); His-tag; made in house; host or cells: E. coli BL21 (DE3)
T3 sequence (P07237 235-479 H354A): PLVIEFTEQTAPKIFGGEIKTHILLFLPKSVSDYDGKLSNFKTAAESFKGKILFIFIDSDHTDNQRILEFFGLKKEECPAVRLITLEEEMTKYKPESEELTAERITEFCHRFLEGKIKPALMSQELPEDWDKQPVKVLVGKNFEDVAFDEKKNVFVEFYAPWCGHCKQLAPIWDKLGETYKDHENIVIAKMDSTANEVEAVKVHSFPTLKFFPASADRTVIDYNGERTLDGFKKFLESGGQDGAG
Protocol: as §1, §2

MBP-PDI-b′xa′ K328E = target: T4, MBP-PDI-b′xa′ K328E (Homo sapiens, UniProt P07237, K328E); experiment: Isothermal titration calorimetry (ITC); assay type: binding; conditions: 25 °C
T4 construct: MBP-PDI-b′xa′(235–479); His-tag; made in house; host or cells: E. coli BL21 (DE3)
T4 sequence (P07237 235-479 K328E): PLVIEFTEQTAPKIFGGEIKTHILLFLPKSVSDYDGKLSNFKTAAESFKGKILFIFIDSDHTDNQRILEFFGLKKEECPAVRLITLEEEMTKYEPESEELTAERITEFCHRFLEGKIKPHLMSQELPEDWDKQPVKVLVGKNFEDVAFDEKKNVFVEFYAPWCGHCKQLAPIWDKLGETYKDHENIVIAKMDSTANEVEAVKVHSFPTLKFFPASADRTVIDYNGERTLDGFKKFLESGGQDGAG
Protocol: as §1, §2

MBP-PDI-b′xa′ L355R = target: T5, MBP-PDI-b′xa′ L355R (Homo sapiens, UniProt P07237, L355R); experiment: Isothermal titration calorimetry (ITC); assay type: binding; conditions: 25 °C
T5 construct: MBP-PDI-b′xa′(235–479); His-tag; made in house; host or cells: E. coli BL21 (DE3)
T5 sequence (P07237 235-479 L355R): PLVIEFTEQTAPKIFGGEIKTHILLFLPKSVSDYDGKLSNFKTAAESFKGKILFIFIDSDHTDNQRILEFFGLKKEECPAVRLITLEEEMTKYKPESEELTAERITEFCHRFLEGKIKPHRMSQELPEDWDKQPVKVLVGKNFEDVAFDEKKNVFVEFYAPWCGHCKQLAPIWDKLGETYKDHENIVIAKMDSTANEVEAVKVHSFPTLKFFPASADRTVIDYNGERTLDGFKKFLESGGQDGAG
Protocol: as §1, §2

wt MBP-PDI-b′xa′ = target: T6, wt MBP-PDI-b′xa′ (Homo sapiens, UniProt P07237); experiment: Isothermal titration calorimetry (ITC); assay type: binding; conditions: 25 °C
T6 construct: MBP-PDI-b′xa′(235–479); His-tag; made in house; host or cells: E. coli BL21 (DE3)
T6 sequence (P07237 235-480): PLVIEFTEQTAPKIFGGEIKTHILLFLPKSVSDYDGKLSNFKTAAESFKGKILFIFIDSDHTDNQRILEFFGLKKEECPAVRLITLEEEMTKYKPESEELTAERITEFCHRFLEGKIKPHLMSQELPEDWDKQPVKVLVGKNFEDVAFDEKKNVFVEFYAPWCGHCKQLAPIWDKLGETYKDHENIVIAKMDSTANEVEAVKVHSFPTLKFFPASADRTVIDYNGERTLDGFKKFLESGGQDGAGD
Protocol: as §1, §2

full-length human PDI = full-length human PDI (Homo sapiens, UniProt P07237); experiment: Insulin reduction assay; assay type: biochemical; conditions: compound 100 μM, 1.5 μM protein, last read (100 min); PDI alone 1.125
full-length human PDI, sequence (P07237 18-508): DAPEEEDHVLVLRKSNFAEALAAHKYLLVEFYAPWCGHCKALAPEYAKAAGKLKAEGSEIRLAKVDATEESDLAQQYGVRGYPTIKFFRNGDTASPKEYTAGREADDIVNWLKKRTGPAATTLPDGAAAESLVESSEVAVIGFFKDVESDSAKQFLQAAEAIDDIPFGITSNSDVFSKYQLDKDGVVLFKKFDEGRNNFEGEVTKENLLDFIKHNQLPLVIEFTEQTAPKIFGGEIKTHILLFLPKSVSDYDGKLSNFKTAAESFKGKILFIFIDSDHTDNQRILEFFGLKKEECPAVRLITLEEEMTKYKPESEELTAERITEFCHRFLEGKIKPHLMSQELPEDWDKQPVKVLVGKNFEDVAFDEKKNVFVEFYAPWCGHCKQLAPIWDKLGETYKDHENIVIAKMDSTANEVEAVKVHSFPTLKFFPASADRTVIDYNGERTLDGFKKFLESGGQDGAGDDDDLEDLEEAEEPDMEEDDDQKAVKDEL
Protocol: (§3) The insulin reduction assay was performed to assess the enzymatic activity of PDI and its MBP-fused recombinant proteins. PDI can reduce insulin in the presence of dithiothreitol (DTT) along with increase in turbidity of the reaction mixture. We thus monitored spectrophotometrically the aggregation of reduced insulin through the increase of turbidity. The reductase activity was measured in 100 μL in presence of 600 μM insulin, 1.5 μM PDI and recombinant PDI proteins, 1 mM DTT, and with protein buffer (pH 7.4), at room temperature over 100 min by absorption at 650 nm. For inhibition assay, 100 μM of rutin, kaempferitrin, tiliroside and 2′-O-galloylhyperin or control buffer was added to the reaction system.

murine MBP-mPDI-b′xa′ = target: T7, murine MBP-mPDI-b′xa′ (Mus musculus, UniProt P09103); experiment: Insulin reduction assay; assay type: biochemical; conditions: rutin 100 μM, last read (100 min); MBP-mPDI-b′xa′ alone 0.832
T7 construct: MBP-mPDI-b′xa′ (236–477); His-tag; made in house; host or cells: E. coli BL21 (DE3)
T7 sequence (P09103 236-477): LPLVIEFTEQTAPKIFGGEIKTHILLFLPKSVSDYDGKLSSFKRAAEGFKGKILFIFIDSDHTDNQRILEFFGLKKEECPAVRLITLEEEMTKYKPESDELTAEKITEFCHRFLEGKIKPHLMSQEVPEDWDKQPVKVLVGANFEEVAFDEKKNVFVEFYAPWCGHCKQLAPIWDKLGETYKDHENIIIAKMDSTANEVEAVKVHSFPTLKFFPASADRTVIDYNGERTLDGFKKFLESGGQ
Protocol: as §3

Water solubility = assay type: physicochemical
PDI = tested on: PDI; set-up: method as in PMID 22565308, PMID 26240139; conditions: dose-dependent; cited from earlier work
ERp5 = tested on: ERp5; set-up: method as in PMID 22565308; conditions: cited from earlier work
ERp57 = tested on: ERp57; set-up: method as in PMID 22565308; conditions: cited from earlier work
ERp72 = tested on: ERp72; set-up: method as in PMID 22565308; conditions: cited from earlier work
thioredoxin = tested on: thioredoxin; set-up: method as in PMID 22565308; conditions: cited from earlier work

Which results are given for `C[C@@H]1O[C@@H](OC[C@H]2O[C@@H](Oc3c(-c4ccc(O)c(O)c4)oc4cc(O)cc(O)c4c3=O)[C@H](O)[C@@H](O)[C@@H]2O)[C@H](O)[C@H](O)[C@H]1O` [rutin]?
binding to MBP [1]: does not bind; Kd (MBP-PDI-b′xa′ E359A): 4.1 ± 0.74 µM; N (stoichiometry ratio) (MBP-PDI-b′xa′ E359A): 1.18 ± 0.03; ΔG (MBP-PDI-b′xa′ E359A): -7.39 ± 0.49 kcal/mol; Kd (MBP-PDI-b′xa′ E359K): 4.48 ± 0.58 µM; N (stoichiometry ratio) (MBP-PDI-b′xa′ E359K): 1.21 ± 0.02; ΔG (MBP-PDI-b′xa′ E359K): -7.31 ± 0.45 kcal/mol; decrease of binding to H354A mutant compared with wt MBP-PDI-b′xa′ (MBP-PDI-b′xa′ H354A; ITC Kd 5.98 vs 2.39 μM): about 3 times; Kd (MBP-PDI-b′xa′ H354A; ITC, 25 °C, H354A): 5.98 ± 1.08 µM; N (stoichiometry ratio) (MBP-PDI-b′xa′ H354A; ITC, 25 °C, H354A): 0.72 ± 0.03; ΔG (MBP-PDI-b′xa′ H354A; ITC, 25 °C, H354A): -7.15 ± 0.86 kcal/mol; Kd (MBP-PDI-b′xa′ K328E): 2.29 ± 0.36 µM; N (stoichiometry ratio) (MBP-PDI-b′xa′ K328E): 0.86 ± 0.02; ΔG (MBP-PDI-b′xa′ K328E): -7.72 ± 0.31 kcal/mol; Kd (MBP-PDI-b′xa′ L355R): 3.5 ± 0.39 µM; N (stoichiometry ratio) (MBP-PDI-b′xa′ L355R): 1.93 ± 0.03; ΔG (MBP-PDI-b′xa′ L355R): -7.46 ± 0.23 kcal/mol; Kd (wt MBP-PDI-b′xa′): 2.31 µM and 2.39 µM; turbidity (OD650), raw kinetic read at 1:40:32 (full-length human PDI): 0.924; turbidity (OD650), raw kinetic read at 1:40:32 (murine MBP-mPDI-b′xa′): 0.583; solubility (Water solubility): ~200 µM (≈ 122 µg/mL); IC50 of inhibition of PDI activities (PDI): micromolar range; inhibition of ERp5 (ERp5): did not inhibit; inhibition of ERp57 (ERp57): did not inhibit; inhibition of ERp72 (ERp72): did not inhibit; inhibition of thioredoxin (thioredoxin): did not inhibit
